According to US20160251614A1, “CELL CULTURE MEDIUM AND BIOPROCESS OPTIMIZATION” (UNIVERSITY OF NOTRE DAME DU LAC, priority 2013, published 2016):

Tests used:
Type in all cases: cell-based, Drosophila
S2 cells [1] = assay: Primary small molecule screen in ZO Fortified, CyQUANT Direct Proliferation Assay; details: for compound z-score (zS2): 4 days, z vs negative control, hit cutoffs z=±3; for hit call, primary screen: hit cutoffs ±3
Procedure: (§1) Five stock plates of randomized compounds (410 total) were prepared at 75 μM in water (1:133 dilution) using an automated liquid handler (Eppendorf EPMotion 5075). Strategically located negative control wells were incorporated into the stock plates by dosing wells with DMSO (1:133, carrier only control). Randomly placed positive control wells were also included by dosing wells with DMSO (1:133); for flexibility, positive controls were prepared in the working stock. Working stocks plates at 2 and 20 μM (2×) were then prepared in ZO Fortified by diluting the 5 stock plates 1:3.75 (high concentration working stock) and then serially diluting 1:10 (low concentration working stock). Positive control wells were prepared by replacing 10% of the media with 100% fly extract (FEX).
(§2) Cells were rinsed three times in PBS and seeded at a concentration of 50,000 cells/well (50 μL) in ZO Fortified (primary screen) or ZO Fortified supplemented with 2 μM spermidine (secondary screen) in 10 plates. Working stocks, 50 μL, were then immediately added on top of the cells (day 0). Plates were incubated at 25° C. for four days. On the fourth day, plates were imaged at 10× magnification on a confocal microscope using automated screen acquisition (Andor Spinning Disc Confocal Microscope, Metamorph Software). CyQUANT® Direct Proliferation Assay (Invitrogen) was then added (0.25× final conc.) and fluorescent intensity was measured with a plate reader (Biotek Synergy H2).
(§3) Five stock plates of randomized compounds in singlet (410 total) were prepared at 75 μM in water (1:133 dilution) using an automated liquid handler (Eppendorf epMotion® 5075). Ten strategically located negative controls were incorporated into each stock plate by dosing wells with DMSO (1:133, carrier only control) (Zhang, Optimal High-Throughput Screening: Practical Experimental Design and Data Analysis for Genome Scale RNAi Research, 2011). Four randomly placed positive control wells were also included on each plate by dosing wells with DMSO (1:133) for consistency, but for flexibility positive control treatments were prepared in the working stock. Working stocks at 2 and 20 μM (2×) were then prepared in ZO Fortified by diluting the 5 stock plates 1:3.75 (high concentration working stock) and then serially diluting 1:10 (low concentration working stock). Positive control wells were prepared by replacing 10% of the media with 100% fly extract (FEX) (see Zartman et al., Dev. Camb. Engl., 2013, 140, 667-674).
(§4) Cells were rinsed three times in phosphate buffered saline (PBS) and seeded at 50,000 cells/well (50 μL) in ZO Fortified. Working stocks, 50 μL, were then immediately added on top of the cells (day 0). Plates were incubated at 25° C. for four days, and then imaged at 10× magnification on a Nikon microscope using automated screen acquisition in MetaMorph® software. Plates were then treated with CyQUANT® (0.25× final concentration) for one hour at 25° C., and fluorescent intensity was measured with a plate reader (Biotek Synergy H2).
(§5) Strictly standardized mean difference (SSMD) scores for classifying assay quality were calculated with respect to negative controls on a plate-wise basis, with the average assay quality being excellent for both cell lines and screened concentrations. […] As a hit selection metric we used z-scores, which measure the number of standard deviations from the negative control that a small molecule treatment causes. Z-scores were calculated on a plate-wise basis, and hit cutoffs of z=±3 were selected. Visual inspection of images was used to remove false-positive hits, which generally occurred due to autofluorescence of a few of the compounds.

C1.8 cells [2] = assay: as above; details: C1.8 cells in ZO Fortified; for compound z-score (zC1.8): 4 days, z vs negative control, hit cutoffs z=±3; for hit call, primary screen: hit cutoffs ±3
Procedure: as §1, §2, §3, §4, §5

S2 cells [3] = assay: Secondary screen in ZB Media (ZO Fortified with spermidine), CyQUANT; details: hit cutoffs ±3
Procedure: as §1, §2
(§6) Representative positive and negative control wells can be found in FIG. 7. Compound z-scores were calculated similarly, hit cutoffs of ±3 were established visual inspection of confocal images was used to remove false-positive hits. This analysis yielded 8 C1.8 and 27 S2 positive hit compounds and 12 C1.8 and 27 S2 negative hit compounds (FIGS. 8-10).

C1.8 cells [4] = assay: as above; details: C1.8 cells in ZB Media, hit cutoffs ±3
Procedure: as §1, §2, §6

ERK in S2 cells = assay: Western blot of ERK and dpERK (MAPK activity); details: spermidine supplementation, p>0.45
Procedure: (§7) For western blots, C1.8 and S2 cells were rinsed three times in PBS and seeded in tissue culture flasks at a concentration of 1,000,000 cell/mL in the various media. Cells were cultured until positive control samples (complete media) reached ˜90% confluency, at which point all cell samples were lysed for 30 minutes on ice in a buffer containing 50 mM Tris, 150 mM NaCl, 1% Nonidet P 40 substitute (Sigma 74385), and 1% Sigma protease inhibitor cocktail (P8340). Nucleic acid and cell debris were cleared by centrifugation at 12,000 rpm for 20 minutes at 4° C. Because polyamines are known to play roles in initiation of transcription and translation, “housekeeping” genes routinely used as loading controls for western blots are likely inappropriate for this application. Thus samples were normalized by total loaded protein. Sample protein concentrations were determined three independent times per sample using Coomassie Plus (Bradford) Assay (Thermo Scientific 23238). ANOVA comparison of loading concentrations across all samples found no significant variation between samples (p>0.34). Proteins were resolved by SDS-PAGE in reducing conditions, electroblotted to PVDF membranes (Hybone 10600087), and probed with either 1:1000 anti-rabbit p44/p42 MAPK (Erk1/2) (Cell Signaling) or 1:1500 anti-mouse MAPK (dpERK1/2) (Sigma). Blots were developed using WesternBreeze chromogenic western blot immunodetection kit (Invitrogen) and quantification was done in Fiji (Schindelin et al., Nat. Methods, 2012, 9, 676-682).

ERK in C1.8 cells = assay: Western blot of ERK and dpERK (MAPK activity)
Procedure: as §7

S2 cells [5] = assay: Long-term culture in chemically defined medium; details: passaged 1:2 retaining half of spent media
Procedure: (§8) Cells were rinsed 3× in PBS and then seeded at high confluency in ZO Fortified and ZB Media (ZO Fortified supplemented with 1 μM spermidine). Upon reaching confluency, cells were passaged 1:2 retaining half of the spent media.
(§9) C1.8, S2, and Kc167 (Kc) cells were expanded in optimized serum-containing media, C1.8, S2, and Kc167 media, respectively. C1.8 media contains M3 media (Sigma-Aldrich) supplemented with FBS (2%), insulin (5 μg/m), and fly extract (2.5%). S2 media is based on Schneider's media (Gibco® Life Technologies) supplemented with FBS (10%). Kc media containing M3 media supplemented with yeast extract (10 mg/mL), bactopeptone (25 mg/mL), and 5% FBS. All cell lines were obtained and cultured according to instructions from the Drosophila Genomics Resource Center (DGRC). Fly extract was prepared from adult yw flies as described by the DGRC. For culture in chemically defined media, cells were rinsed three times in PBS to remove residual serum and seeded at around 70% confluency in ZO Fortified or ZB Media (ZO Fortified with 1 μM spermidine added at time of passage). Upon reaching confluency, cells were passaged 1:2 retaining half the spent media, similar to routine maintenance in complete media, with cells passaged in ZB Media receiving fresh doses of 1 μM spermidine.

C1.8 cells [6] = assay: Long-term culture in chemically defined medium; details: passaged 1:2 retaining half of spent media
Procedure: as §8, §9

[7] = test system: polyamine-depleted C1.8 cells; assay: Polyamine-depleted spermidine dose-response, manual cell count; details: ZO Fortified
Procedure: C1.8 cells were rinsed three times in PBS and seeded in ZO Fortified at 1×10^6 cell/mL. After nine days of culture in ZO Fortified, cells were harvested and seeded in tissue culture flasks in ZO Fortified supplemented with 0, 0.1, 1, or 10 μM spermidine (in triplicate). After 6 days of culture, cells were manually counted.

| Structure (SMILES) | compound z-score (zS2) (S2 cells [1]) | compound z-score (zC1.8) (C1.8 cells [2]) | hit call, primary screen (S2 cells [1]) | hit call, primary screen (C1.8 cells [2]) | other results |
| --- | --- | --- | --- | --- | --- |
| CC(C)(C)c1cc(/C=C(\C#N)C(N)=S)cc(C(C)(C)C)c1O [AG-879] | −13.9 | −17.3 | – | – | – |
| CC(O)=C(C#N)C(=O)Nc1cc(Br)ccc1Br [LFM-A13, α-cyano-β-hydroxy-β-methyl-N-(2,5-dibromophenyl)propen-amide] | – | – | – | – | hit call, secondary screen (S2 cells [3]): positive hit; hit call, secondary screen (C1.8 cells [4]): positive hit |
| CO[C@@H]1[C@H](N(C)C(=O)c2ccccc2)C[C@H]2O[C@]1(C)n1c3ccccc3c3c4c(c5c6ccccc6n2c5c31)C(=O)NC4 [PKC-412] | −11.0 | −17.1 | – | – | – |
| NCCCCN [putrescine, butane-1,4-diamine] | – | – | positive hits | positive hits | – |
| Cc1cc(/C=C/c2ccc3cc(N(C)C)ccc3[n+]2C)c(C)n1-c1ccccc1 [pyrvinium pamoate] | −13.0 | −17.7 | – | – | – |
| NCCCCNCCCN [spermidine] | 8.7 | 10.0 | positive hit | positive hit | total ERK levels (ERK in S2 cells): not significantly influenced; ERK double phosphorylation (dpERK) (ERK in C1.8 cells; spermidine supplementation (ZB Media) vs ZO Fortified, p<0.012): increase ERK double phosphorylation; total ERK levels (ERK in C1.8 cells; spermidine supplementation, p>0.45): not significantly influenced; passages reached in long-term culture (S2 cells [5]): 4 passages; passages reached in long-term culture (C1.8 cells [6]): ≥ 98 passages; passages reached in long-term culture (C1.8 cells [6]; listed as Spermidine): > 15 passages; proliferation (cell number) ([7]; 1 μM spermidine compared to 0 or 0.1 μM, 6 days, p<5×10^−10): significant increase in proliferation; proliferation (cell number) ([7]; higher dose (10 μM) spermidine, after 6 days): failed to produce any statistically significant increases in cell number |
| NCCCNCCCCNCCCN [spermine] | 17.7 | 10.4 | positive hit | positive hit | – |
| CN[C@@H]1C[C@H]2O[C@@](C)([C@@H]1OC)n1c3ccccc3c3c4c(c5c6ccccc6n2c5c31)C(=O)NC4 [staurosporine] | −17.3 | −18.6 | – | – | – |
| CC1=C(O)C(=O)[C@@H]2O[C@@H]2C1=O [terreic acid] | – | – | – | – | hit call, secondary screen (S2 cells [3]): positive hit; hit call, secondary screen (C1.8 cells [4]): positive hit |
